Square brackets hold non-standard residues; d marks the D form. Ends that are not written are not given here. Peptide text beside a SMILES is read from it. pS = N[C@@H](COP(=O)(O)O)C(=O)O
B1: pCby S22P 13-mer (peptide)
peptide: KTPPRKSA[pS]LPNL
notes: Chibby (Cby), human, residues 12-24 with S22P; free NH2 and COOH ends; also called Cby 13-mer S22P; source: synthetic peptide, bought: TUFTS University Core Facility
B2: Cby 18-mer L24A (phosphorylated) (peptide)
peptide: KTPPRKSA[pS]LSNAHSLDR
notes: Chibby (Cby), human, residues 12-29 with L24A; Not in the methods' list of peptides; also called Cby L24A 18-mer; source: synthetic peptide
B3: pCby 11-mer (peptide)
peptide: KTPPRKSA[pS]LS-NH2
modifications: N-terminus assumed
SMILES: CC(C)C[C@H](NC(=O)[C@H](COP(=O)(O)O)NC(=O)[C@H](C)NC(=O)[C@H](CO)NC(=O)[C@H](CCCCN)NC(=O)[C@H](CCCNC(=N)N)NC(=O)[C@@H]1CCCN1C(=O)[C@@H]1CCCN1C(=O)[C@@H](NC(=O)[C@@H](N)CCCCN)[C@@H](C)O)C(=O)N[C@@H](CO)C(N)=O
notes: Chibby (Cby), human, residues 12-22; free NH2 end; source: synthetic peptide, bought: TUFTS University Core Facility
B4: pCby 7-mer (peptide)
peptide: Ac-RKSA[pS]LS-NH2
SMILES: CC(=O)N[C@@H](CCCNC(=N)N)C(=O)N[C@@H](CCCCN)C(=O)N[C@@H](CO)C(=O)N[C@@H](C)C(=O)N[C@@H](COP(=O)(O)O)C(=O)N[C@@H](CC(C)C)C(=O)N[C@@H](CO)C(N)=O
notes: also called 16RKSA(pS)LS22; pCby WT 7-mer; source: synthetic peptide, bought: TUFTS University Core Facility
B5: pCby S22P 7-mer (peptide)
peptide: Ac-RKSA[pS]LP-NH2
SMILES: CC(=O)N[C@@H](CCCNC(=N)N)C(=O)N[C@@H](CCCCN)C(=O)N[C@@H](CO)C(=O)N[C@@H](C)C(=O)N[C@@H](COP(=O)(O)O)C(=O)N[C@@H](CC(C)C)C(=O)N1CCC[C@H]1C(N)=O
notes: Chibby (Cby), human, residues 16-22 with S22P; also called Cby 7-mer S22P; 16RKSA(pS)LP22; source: synthetic peptide, bought: TUFTS University Core Facility

Tests used:
14-3-3ζ = molecular target: T1, 14-3-3ζ (Homo sapiens, UniProt P63104); assay: ITC of Cby peptides titrated into 14-3-3ζ; type: binding; details: for n (binding stoichiometry of monomeric 14-3-3 and Cby peptide): 25°C; for T∆S / ∆G / ∆H / TΔS / ΔG / ΔH: 298.15 K; for T∆S / ∆G / ∆H: duplicate set (S1 Table); for TΔS / ΔG / ΔH: pH 6.8, Table 1 set of duplicate experiments
T1 construct: Both full-length 14-3-3ζ and 14-3-3ζΔC12 were expressed as N-terminally His-tagged protein; His tag (TEV-cleavable) (N, cleaved yes); made in house; host or cells: Escherichia coli BL21 (DE3) pLysS
T1 sequence (P63104 1-245): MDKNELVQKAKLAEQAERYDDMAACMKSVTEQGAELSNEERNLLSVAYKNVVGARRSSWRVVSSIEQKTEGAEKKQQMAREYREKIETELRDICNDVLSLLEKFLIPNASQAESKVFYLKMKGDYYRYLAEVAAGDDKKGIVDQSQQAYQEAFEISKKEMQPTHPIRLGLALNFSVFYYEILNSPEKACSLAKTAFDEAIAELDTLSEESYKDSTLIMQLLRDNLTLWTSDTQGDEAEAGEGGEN
Source text: The human14-3-3ζ ORF purchased from GeneCopoeia was transferred into Gateway pDEST17 vector (Invitrogen). The 14-3-3ζΔC12, where the 12 C-terminal residues were deleted, was then generated from the full-length construct using QuikChange II Site-Directed Mutagenesis Kit (Strategene). Both full-length 14-3-3ζ and 14-3-3ζΔC12 were expressed as N-terminally His-tagged protein in Escherichia coli (E. coli) BL21 (DE3) pLysS in M9 medium. For unlabeled protein, protein expression was induced at an O.D.600 of 0.9 by adding 0.75 mM IPTG at 18°C for 24 h. The ^15N, ^13C, ^2H labeled 14-3-3ζΔC12 was produced by growing E. coli in deuterated M9 medium. Cells adapted to 70% D2O were used to inoculate a 1 L culture of M9 prepared in 100% D2O. Cells were grown at 37°C and overexpression was induced at an O.D.600 of 0.6 with 0.75 mM IPTG. After a 60-h induction at 18°C, the cells were harvested. All 14-3-3ζ constructs used in this study were purified from the crude lysate by affinity chromatography using Ni Sepharose Fast Flow beads (Amersham Biosciences). The tag was then cleaved by overnight incubation with His-tagged tobacco etch virus (TEV) protease at 25°C. The cleaved 14-3-3ζ, which retains an N-terminal glycine, was purified by passing the mixture through Ni Sepharose Fast Flow beads. The final yields for the 14-3-3ζ proteins were ~50 mg per L of M9 media (including deuterated media).
The Cby peptides used in this study were purchased from GenScript USA Inc. and the TUFTS University Core Facility. From GenScript USA Inc.: Cby 13-mer (NH2-^12KTPPRKSASLSNL^24-COOH), Cby S20D 13-mer (NH2-^12KTPPRKSADLSNL^24-COOH), Cby S20E 13-mer (NH2-^12KTPPRKSAELSNL^24-COOH), pCby 13-mer (NH2-^12KTPPRKSApSLSNL^24-COOH) and pCby 18-mer ((NH2-^12KTPPRKSApSLSNLHSLDR^29-COOH). From TUFTS: pCby 7-mer (Ac-^16RKSApSLS^22-NH2), pCby 11-mer (NH2-^12KTPPRKSApSLS^22-NH2), pCby S22P 7-mer (Ac-^16RKSApSLP^22-NH2), pCby S22P 13-mer (NH2-^12KTPPRKSApSLPNL^24-COOH) and pCby S22P 18-mer ([…]). Peptides were dissolved and dialyzed in 50 mM sodium phosphate, 100 mM NaCl at pH 6.8 for ITC and NMR experiments.
ITC experiments were performed on a VP-ITC instrument (MicroCal) at 25°C. The protein and peptide samples were dialyzed into a buffer containing 50 mM sodium phosphate, 100 mM NaCl, 1 mM DTT at pH 6.8 and degassed before the experiments. In a typical experiment, 5 μL aliquots of ~1–2 mM peptide were titrated stepwise into the 1.4 mL sample cell containing ~100–200 μM 14-3-3ζ. The association constant (Ka), molar binding stoichiometry (n) and the binding enthalpy (ΔH), entropy (ΔS) and Gibbs free energy (ΔG) were determined by fitting the binding isotherm to a one-site model with MicroCal Origin7 software. All ITC experiments were performed in duplicate. A duplicate set of thermodynamic derived binding parameters are found in S1 Table. Peptide and protein concentrations were determined from amino acid analysis (Amino Acid Analysis Facility, SickKids, Toronto, ON).

[1] = molecular target: T2, 14-3-3ζ (human, full-length) (human, UniProt P63104 1-245); assay: ITC; VP-ITC, 25°C; ~1-2 mM peptide titrated in 5 uL aliquots into ~100-200 uM 14-3-3ζ in the cell; 50 mM sodium phosphate, 100 mM NaCl, 1 mM DTT, pH 6.8; one-site model; in duplicate; details: both partners purified
T2 construct: N-terminal glycine retained after TEV cleavage of the His tag; 14-3-3ζ, human, ORF bought from GeneCopoeia, in Gateway pDEST17; full-length; Dimer in the crystal; the ITC stoichiometry counts on the 14-3-3 monomer; also called WT 14-3-3ζ; source: E. coli BL21 (DE3) pLysS, purified (Ni Sepharose, TEV cleavage, second Ni Sepharose pass); not shown: His tag, N-terminal, cleaved
T2 sequence: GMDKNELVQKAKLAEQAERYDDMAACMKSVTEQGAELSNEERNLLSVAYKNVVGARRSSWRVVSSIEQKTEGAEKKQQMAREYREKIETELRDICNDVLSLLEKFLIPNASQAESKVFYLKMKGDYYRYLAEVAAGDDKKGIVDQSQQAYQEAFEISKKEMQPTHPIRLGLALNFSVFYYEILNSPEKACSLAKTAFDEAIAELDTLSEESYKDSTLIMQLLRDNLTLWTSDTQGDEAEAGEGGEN

[2] = 50 mM sodium phosphate, 100 mM NaCl, 1 mM DTT, pH 6.8, one-site model, Table 1 set of duplicate experiments
[3] = pH 6.8, duplicate set (S1 Table)

| Molecule | n (binding stoichiometry of monomeric 14-3-3 and Cby peptide) (14-3-3ζ; [2]) | n (binding stoichiometry of monomeric 14-3-3 and Cby peptide) (14-3-3ζ; [3]) | T∆S (14-3-3ζ) [kcal/mol] | ∆G (14-3-3ζ) [kcal/mol] | ∆H (14-3-3ζ) [kcal/mol] | TΔS (14-3-3ζ) [kcal/mol] | ΔG (14-3-3ζ) [kcal/mol] | ΔH (14-3-3ζ) [kcal/mol] | greater affinity compared to the Cby 7-mer (fold, in words) (14-3-3ζ) | Kd (14-3-3ζ; 25°C (298.15 K), 50 mM sodium phosphate, 100 mM NaCl, 1 mM DTT, pH 6.8, one-site model, Table 1 set of duplicate experiments) [µM] | Kd [1] [µM] | dH [1] [kcal/mol] | stoichiometry N [1] |
| --- | --- | --- | --- | --- | --- | --- | --- | --- | --- | --- | --- | --- | --- |
| CC(C)C[C@H](NC(=O)[C@H](CC(N)=O)NC(=O)[C@@H]1CCCN1C(=O)[C@H](CC(C)C)NC(=O)[C@H](COP(=O)(O)O)NC(=O)[C@H](C)NC(=O)[C@H](CO)NC(=O)[C@H](CCCCN)NC(=O)[C@H](CCCNC(=N)N)NC(=O)[C@@H]1CCCN1C(=O)[C@@H]1CCCN1C(=O)[C@@H](NC(=O)[C@@H](N)CCCCN)[C@@H](C)O)C(=O)O [Cby 13-mer S22P] (H-KTPPRKSA[pS]LPNL-OH) | 1.06 | 1.02 | 3.33 | -8.03 ± 0.02 | -4.70 ± 0.01 | 3.49 | -8.13 ± 0.02 | -4.64 ± 0.01 | – | – | – | – | – |
| CC(=O)N[C@@H](CCCNC(=N)N)C(=O)N[C@@H](CCCCN)C(=O)N[C@@H](CO)C(=O)N[C@@H](C)C(=O)N[C@@H](COP(=O)(O)O)C(=O)N[C@@H](CC(C)C)C(=O)N1CCC[C@H]1C(N)=O [Cby 7-mer S22P] (Ac-RKSA[pS]LP-NH2) | 1.03 | 1.02 | 1.29 | -7.50 ± 0.02 | -6.21 ± 0.02 | 1.39 | -7.55 ± 0.01 | -6.16 ± 0.01 | – | – | – | – | – |
| CC(C)C[C@H](NC(=O)[C@H](COP(=O)(O)O)NC(=O)[C@H](C)NC(=O)[C@H](CO)NC(=O)[C@H](CCCCN)NC(=O)[C@H](CCCNC(=N)N)NC(=O)[C@@H]1CCCN1C(=O)[C@@H]1CCCN1C(=O)[C@@H](NC(=O)[C@@H](N)CCCCN)[C@@H](C)O)C(=O)N[C@@H](CO)C(N)=O [Cby 11-mer] (H-KTPPRKSA[pS]LS-NH2) | 0.95 | 0.96 | 3.22 | -6.49 ± 0.02 | -3.27 ± 0.02 | 3.23 | -6.49 ± 0.02 | -3.26 ± 0.02 | more than two-fold | 17.5 ± 0.6 | – | – | – |
| CC(=O)N[C@@H](CCCNC(=N)N)C(=O)N[C@@H](CCCCN)C(=O)N[C@@H](CO)C(=O)N[C@@H](C)C(=O)N[C@@H](COP(=O)(O)O)C(=O)N[C@@H](CC(C)C)C(=O)N[C@@H](CO)C(N)=O [Cby 7-mer] (Ac-RKSA[pS]LS-NH2) | 1.01 | 0.94 | 2.20 | -5.90 ± 0.02 | -3.70 ± 0.04 | 2.60 | -5.95 ± 0.03 | -3.35 ± 0.06 | – | – | – | – | – |
| B1 | – | – | – | – | – | – | – | – | – | – | 1.1 | -4.64 ± 0.01 | 1.06 |
| B2 | – | – | – | – | – | – | – | – | – | – | 21.3 | -1.56 ± 0.05 | 0.99 |
| B3 | – | – | – | – | – | – | – | – | – | – | 17.5 | -3.26 ± 0.02 | 0.95 |
| B4 | – | – | – | – | – | – | – | – | – | – | 43.5 | -3.35 ± 0.06 | 1.01 |
| B5 | – | – | – | – | – | – | – | – | – | – | 2.9 | -6.16 ± 0.01 | 1.03 |

— article PMC4409382, “Structural Analysis of the 14-3-3ζ/Chibby Interaction Involved in Wnt/β-Catenin Signaling” (PLoS ONE, 2015)
